Experimental data reported in US5045531A, “Wound treatment employing biologically active ion channel forming peptides and proteins” (Magainin Sciences Inc., priority 1989, dated 1991).
No end group written: not given here.

Tests used:
[1] = test system: polyvinylchloride sponge disc implants (wound healing); test: Collagen content of subcutaneous polyvinylchloride sponge disc implants in rats (pepsin extracted native collagen); format: in vivo, rat; conditions: at seven days, control group 3.43 mg/sponge
From the text: (§1) Twenty-two male rats weighing between 300 g and 325 g were anesthetized, after which their backs and abdomens were shaved and washed with 70% ethanol. Three modified polyvinylchloride sponge discs 2 mm thick and 15 mm in diameter were implanted in each rat abdominally in subcutaneous pockets made under the skin. Two of the implants were cut in half and rejoined before the implantation, and the remaining disc was sandwiched between two silicone discs which forced granulation tissue infiltration to occur from the periphery of the disc. A single 15 mm×15 mm square full excision wound was made on the back and the wound edges tattooed.
(§2) The rats were then divided into four groups. A first, or control, group of four rats received sham injections daily. A second group of four rats received daily intramuscular injections of 10 mg of cortisone acetate. Cortisone is known to be an inhibitor of wound healing. A third group of seven rats received daily intramuscular injections of 0.3 mg of amide-terminated Magainin II. A fourth group of seven rats received daily intramuscular injections of 10 mg of cortisone acetate and 0.3 mg of Magainin II at separate sites. At seven days, rat weights were recorded, wound sizes measured, and the implants harvested. The staple which joined the two disc halves together was carefully removed and the breaking strength measured. Collagen content from the implant halves from each treatment group was measured by weighing the pepsin extracted native collagen. The sponge halves are homogenized in 0.5M ice-cold acetic acid containing 0.1 mg of pepsin per ml. The homogenate was stirred for 24 hours at 4° C., centrifuged, and supernatants saved. The native solubilized collagen was isolated by adding sodium chloride to 10 % w/v. The salt precipitate was collected by centrifugation (10,000× g for 10 min.) and then taken up in 145 mM potassium phosphate buffer pH7.6, exhaustively dialyzed against 1 mM HCl, lyophilized and its dry weight recorded. Confirmation of collagen purity was made by SDS polyacrylamide gel electrophoresis. […]

[2] = test system: polyvinylchloride sponge disc implants (wound healing); test: Wound breaking strength of rejoined sponge disc halves implanted in rats; format: in vivo, rat; conditions: at seven days, control group 440 g
From the text: as §1, §2

[3] = test system: full excision wound; test: Wound contraction of 15 mm x 15 mm square full excision wound on the back of rats; format: in vivo, rat; conditions: for average wound contraction: at seven days, control group 67%
From the text: as §1
The rats were then divided into four groups. A first, or control, group of four rats received sham injections daily. A second group of four rats received daily intramuscular injections of 10 mg of cortisone acetate. Cortisone is known to be an inhibitor of wound healing. A third group of seven rats received daily intramuscular injections of 0.3 mg of amide-terminated Magainin II. A fourth group of seven rats received daily intramuscular injections of 10 mg of cortisone acetate and 0.3 mg of Magainin II at separate sites. At seven days, rat weights were recorded, wound sizes measured, and the implants harvested. The staple which joined the two disc halves together was carefully removed and the breaking strength measured. Collagen content from the implant halves from each treatment group was measured by weighing the pepsin extracted native collagen. The sponge halves are homogenized in 0.5M ice-cold acetic acid containing 0.1 mg of pepsin per ml. The homogenate was stirred for 24 hours at 4° C., centrifuged, and supernatants saved. The native solubilized collagen was isolated by adding sodium chloride to 10 % w/v. The salt precipitate was collected by centrifugation (10,000× g for 10 min.) and then taken up in 145 mM potassium phosphate buffer pH7.6, exhaustively dialyzed against 1 mM HCl, lyophilized and its dry weight recorded. Confirmation of collagen purity was made by SDS polyacrylamide gel electrophoresis. Pepsin digestion extracts only native collagen, needed for the formation of collagen fibers. The accumulations of collagen in the early stages of healing are responsible for gain in wound tensile strength. Collagen content from the implants taken from the group treated with cortisone acetate alone averged 0.82 mg/sponge, as compared with 3.43 mg/sponge for the control group.

[4] = test system: cortisone inhibition of wound healing; conditions: antagonism of cortisone-inhibited wound healing; cited from earlier work
[5] = cortisone acetate alone, 10 mg daily intramuscular
[6] = 0.3 mg Magainin II plus 10 mg cortisone acetate daily intramuscular at separate sites
[7] = Magainin II alone, 0.3 mg daily intramuscular

For CC(=O)OCC(=O)[C@@]1(O)CC[C@H]2[C@@H]3CCC4=CC(=O)CC[C@]4(C)[C@H]3C(=O)C[C@@]21C [cortisone acetate], the average collagen content [1, 5] was 0.82 mg/sponge, the “average wound breaking strength” value [2, 5] was 195 g and the average wound contraction [3, 5] was 28%.

With “GIGKFLHSAKKFGKAFVGEIMNS-NH2 [Magainin II]” the average collagen content [1, 6] was 3.20 mg/sponge, the average collagen content [1, 7] was 3.82 mg/sponge and the “average wound breaking strength” value [2, 6] was 320 g. For the same molecule, the “average wound breaking strength” value [2, 7] was 415 g, the average wound contraction [3, 6] was 53% and the average wound contraction [3, 7] was 65%. The “effect on cortisone inhibition of wound healing (collagen deposition and wound contraction)” value ([3]; rats given cortisone acetate and Magainin II, conclusion in words) was “antagonistic of cortisone inhibition of wound healing”.

For Vitamin A, the “restoring connective tissue deposition” value [4] is given as “effective in restoring connective tissue deposition” and the restoring wound contraction [4] is given as “ineffective in restoring wound contraction”.

For “growth hormone: other antagonist of cortisone inhibition of wound healing”, the “restoring connective tissue deposition” value [4] is listed as “effective in restoring connective tissue deposition” and the restoring wound contraction [4] is listed as “ineffective in restoring wound contraction”.
